Molecular target: T1, ALDH1A3 (Homo sapiens, UniProt P47895)
T1 sequence (P47895 1-512): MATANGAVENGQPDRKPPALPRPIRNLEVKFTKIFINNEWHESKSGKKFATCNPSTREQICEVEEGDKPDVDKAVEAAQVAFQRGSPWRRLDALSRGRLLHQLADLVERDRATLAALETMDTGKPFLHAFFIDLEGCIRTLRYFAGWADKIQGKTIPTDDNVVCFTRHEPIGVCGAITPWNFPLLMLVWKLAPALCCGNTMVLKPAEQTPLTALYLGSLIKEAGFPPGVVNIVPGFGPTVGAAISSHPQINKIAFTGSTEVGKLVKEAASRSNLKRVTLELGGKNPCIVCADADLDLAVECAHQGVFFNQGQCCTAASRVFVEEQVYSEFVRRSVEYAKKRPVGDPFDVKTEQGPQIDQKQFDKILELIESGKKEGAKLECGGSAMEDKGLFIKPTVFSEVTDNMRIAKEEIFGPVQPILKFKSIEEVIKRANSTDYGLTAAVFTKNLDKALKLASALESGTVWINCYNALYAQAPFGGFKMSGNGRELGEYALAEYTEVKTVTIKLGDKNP
Assay: ALDH1A3 cellular assay (ALDEFLUOR) in WM266.4 melanoma cells
Assay type: cell-based
Settings: WM266.4 cells; 60 min incubation; percentage of ALDH-positive cells
In short: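 WM266.4 melanoma cells, 7500 per well, incubated overnight, then 60 min at 37 °C with compound (10 μM to 0.0005 μM, 10 points) plus BAAA substrate (500 nM final), verapamil (50 μM) and Hoechst. Imaged BODIPY fluorescence per cell; EC50 from percentage of ALDH-positive cells.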

Structure (SMILES) | IC50
CC1Oc2cc(OCCN3CCCC3c3cccc(F)c3)ccc2NC1=O (stereo not shown) [ALDHI-2044, 7-[2-[2-(3-fluorophenyl)pyrrolidin-1-yl]ethoxy]-2-methyl-4H-1,4-benzoxazin-3-one] | 100 to 1000 nM
O=C1CCc2cc(OCCn3ccnc3-c3ccccc3)ccc2N1 [ALDHI-2041, 6-[2-(2-phenylimidazol-1-yl)ethoxy]-3,4-dihydro-1H-quinolin-2-one] | 1000 to 10000 nM
O=C1CCc2cc(NC(=O)c3sc(N4CCOCC4)nc3-c3cccc(F)c3)ccc2N1 [ALDHI-1001, 4-(3-fluorophenyl)-2-morpholino-N-(2-oxo-3,4-dihydro-1H-quinolin-6-yl)thiazole-5-carboxamide] | < 100 nM
O=C1CCc2cc(NC(=O)c3scnc3-c3cccc(F)c3)ccc2N1 [ALDHI-1003, 4-(3-fluorophenyl)-N-(2-oxo-3,4-dihydro-1H-quinolin-6-yl)thiazole-5-carboxamide] | < 100 nM

Reference: patent US20240174634A1, “Aldehyde Dehydrogenase Inhibitors and Their Therapeutic Use” (priority 2020, published 2024)
